Key:
[1] = test system: SH-SY5Y cells; experiment: Transwell co-culture assay, SH-SY5Y cell viability by MTT; format: cell-based
Text: In this and the following examples, human neuroblastoma cell line SH-SY5Y (a cell model of dopaminergic neurons for Parkinson's disease research) that was damaged by 6-hydroxydopamine (6-OHDA, i.e., 2,4,5-trihydroxyphenethylamine)-induced oxidative stress was used to assess the effects of GA on the homing ability of MSCs and the neuroprotective effects of GA pre-treated MSCs and the exosomes derived therefrom. SH-SY5Y cells were obtained from the American Type Culture Collection (ATCC; Manassas, Va., USA). The SH-SY5Y cells were cultured in a humidified incubator at 37° C. with 5% CO2. DMEM (Life Technologies, USA) supplemented with 10% FBS (Hyclone, Thermo Fisher Scientific, USA) and 1% penicillin-streptomycin (Gibco, Thermo Fisher Scientific, USA) was used for culturing of the SH-SY5Y cells.
To determine whether GA can promote MSCs to rescue nerve cell death, transwell co-culture assay was performed where WJMSCs (2×10^4 cells) pre-treated with 0, 20, 40, or 80 μM GA for 24 hours were placed in the upper chamber of a transwell insert, and SH-SY5Y cells (3×10^4 cells) treated with 100 μM 6-OHDA were seeded in the bottom well of the transwell plate. After co-culture of the cells at 37° C. for 24 hours, the SH-SY5Y cell viability was determined by MTT assay. […]

[2] = test system: SH-SY5Y cells; experiment: Western blotting of apoptosis-related, anti-apoptotic and OXPHOS proteins in 6-OHDA-stimulated SH-SY5Y cells; format: cell-based, human; settings: FIG. 5C
Method: To further investigate the molecular events associated with the anti-apoptotic effects of GA pre-treated MSC-derived exosomes, the expression of apoptosis-related and anti-apoptotic proteins in 6-OHDA-stimulated SH-SY5Y cells was measured using western blotting. The damaged SH-SY5Y cells were treated with exosomes isolated either from GA pre-treated WJMSCs (80 μM GA for 24 hours) or untreated WJMSCs.
Moreover, the expression of mitochondrial proteins involved in oxidative phosphorylation (OXPHOS), including ATP5A, UQCRC2, MTCO1, SDHB, and NDUFB8, was examined by western blotting.

[3] = test system: SH-SY5Y cells; experiment: Autophagic flux in SH-SY5Y cells by LC3B immunofluorescence and western blotting; format: cell-based, human
Method: SH-SY5Y cells under 6-OHDA stimulation were treated with exosomes isolated either from GA pre-treated WJMSCs (80 μM GA for 24 hours) or untreated WJMSCs. For immunofluorescence staining, the treated cells were fixed in 4% PFA, incubated with an anti-LC3B primary antibody followed by a fluorophore-conjugated secondary antibody, and stained with 4′,6-diamidino-2-phenylindole (DAPI). The SH-SY5Y cells were then visualized by a fluorescence microscope (Olympus).

NCCc1cc(O)c(O)cc1O [6-OHDA, 2,4,5-trihydroxyphenethylamine]
SH-SY5Y cell viability, effect of 6-OHDA ([1]; 100 μM 6-OHDA, MTT, FIG. 3A): decreased SH-SY5Y cell viability
expression of mitochondrial OXPHOS proteins (ATP5A, UQCRC2, MTCO1, SDHB, NDUFB8) [2]: downregulated the expression of the OXPHOS proteins
LC3 puncta (autophagosome formation) in SH-SY5Y cells ([3]; immunofluorescence, anti-LC3B, FIG. 6A): abundant
autophagy-related protein expression (Beclin-1, LC3B, p62) in SH-SY5Y cells ([3]; western blotting, FIG. 6B): increased Beclin-1 and LC3B expression but decreased p62 protein expression

O=C(/C=C/c1ccc(/C=C/C(=O)Nc2ccc(C3=NCCN3)cc2)cc1)Nc1ccc(C2=NCCN2)cc1 [GW4869]
protective effect of the GA pre-treated WJMSCs on SH-SY5Y viability in the presence of GW4869 ([1]; co-culture assay with exosome generation inhibitor, FIG. 3B): suppressed

Source: US20230145213A1, “Pre-conditioned mesenchymal stem cells and preparations and applications thereof” (BUDDHIST TZU CHI MEDICAL FOUNDATION, priority 2021, published 2023)
